Assay results: PMC8729770, “In Vitro Evaluation of Antimicrobial Peptides from the Black Soldier Fly (Hermetia Illucens) against a Selection of Human Pathogens” (Microbiology Spectrum, 2022)
Read-outs that look alike come from different tables or passages of the source. Ends that are not written are not given here.

Columns and labels:
[1] = tested on: preformed P. aeruginosa ATCC 15442 biofilm; experiment: Biofilm eradication (postexposure); assay type: cell-based, Pseudomonas aeruginosa; details: at 64 μM and 128 μM; resazurin
Protocol: After 16 h of incubation at 37°C and shaking at 110 rpm (New Brunswick Innova 4300), a resazurin assay was used as described by Gilbert-Girard et al. to determine the viability of the bacterial cells in the biofilm ([79]). After incubation, the growth medium was removed from the well plates and the bacterial biofilms were washed once with PBS to remove remaining planktonic cells. […] The fluorescence of the wells was measured at λexcitation = 550 nm and λemission = 590 using a microplate reader (Promega). Afterwards, a crystal violet staining was applied to determine the biomass of the biofilms ([79]). The resazurin solution was removed from the well plates and 200 μL of 100% ethanol (VWR Chemicals) was added to fix the biofilms. After 15 min of incubation, the ethanol was discarded from the wells and the plates were left to air dry for 30 min. […] The staining solution was removed after 5 min and the biofilms were washed with PBS. After air-drying for 10 min, the crystal violet stain was solubilized in 200 μL of 100% ethanol. […] The experiment was carried out three times. Polymyxin B sulfate (Sigma-Aldrich) was included as a reference. […] The next day, bacterial viability and biomass were determined with a resazurin assay and crystal violet assay as described earlier. […]

B. cenocepacia LMG 16656 = details: for IC50: read-out: IC50 B. cenocepacia LMG 16656, starting at 32 μM, 10^5 CFU/mL, 48 h, 37°C, resazurin; for MIC B. cenocepacia LMG 16656: visual
E. coli ATCC 8739 [2] = assay type: cell-based, Escherichia coli; details: ATCC 8739, 16 h
Protocol: To detect antimicrobial activity of the BSF AMPs, the peptide library underwent screening against a panel of microorganisms, consisting of S. aureus ATCC 6538, E. coli ATCC 8739, P. aeruginosa ATCC 9027, C. albicans B59630, and A. fumigatus B42928. Serial dilutions of the peptides were prepared from the DMSO stock solutions in sterile demineralized water in 96-well plates using an automated liquid-handling workstation (Beckman Coulter Biomek 3000) in end volumes of 10 μL. The final in-plate concentration of DMSO was <1%. Peptide concentrations ranged from 64 μM to 0.25 μM for the first evaluation, and from 32 μM to 0.016 μM for the independent repeat. As references, doxycycline (Sigma-Aldrich; S. aureus, E. coli, P. aeruginosa), flucytosine (Sigma-Aldrich; C. albicans), and econazole (Sigma-Aldrich; A. fumigatus) were used. Suspensions of a starting inoculum of 5 × 10^3 CFU/mL (E. coli, S. aureus, C. albicans, A. fumigatus) and 5 × 10^4 CFU/mL (P. aeruginosa) were prepared in MHB (bacterial species) or RPMI medium (fungal species) and 190 μL was added to the 96-well plates. Plates were incubated for 16 h (E. coli, S. aureus, P. aeruginosa), 24 h (C. albicans), or 48 h (A. fumigatus) at 37°C. After incubation, read-out of the antimicrobial activity was performed using a resazurin assay. Then, 20 μL of a 0.01% (wt/vol) resazurin (Sigma-Aldrich) solution was added to each well and plates were incubated for 15 min (S. aureus), 30 min (E. coli), 45 min (P. aeruginosa), 4 h (C. albicans), or 17 h (A. fumigatus) to allow resazurin reduction to take place. Fluorescence was read using a microplate reader (Telix) at λexcitation = 550 nm and λemission = 590. […] MIC values were determined visually. Medium in the wells with no visual growth was plated on MHA to detect the MBC, defined as ≥3 log reduction compared with the growth control.

K. pneumoniae ATCC 13883 = details: ATCC 13883, 16 h
[3] = tested on: M. tuberculosis ATCC 25177 (H37Ra); details: for IC50: read-out: IC50 M. tuberculosis ATCC 25177 (H37Ra), starting at 32 μM, 5×10^5 CFU/mL, 7 days, 37°C, resazurin; for MIC M. tuberculosis ATCC 25177 (H37Ra): visual
P. aeruginosa ATCC 15442 = details: ATCC 15442, 16 h
E. coli ATCC 8739 [4] = details: ATCC 8739, 16 h

Substance | reduction in viability of preformed biofilm [1] | IC50 (B. cenocepacia LMG 16656; repeat 1) [µM] | IC50 (B. cenocepacia LMG 16656; repeat 2) [µM] | MIC B. cenocepacia LMG 16656 (B. cenocepacia LMG 16656; repeat 1) [µM] | MIC B. cenocepacia LMG 16656 (B. cenocepacia LMG 16656; repeat 2) [µM] | MIC E. coli ATCC 8739 (E. coli ATCC 8739 [2]) [µM] | MIC K. pneumoniae (K. pneumoniae ATCC 13883) [µM] | IC50 ([3]; repeat 1) [µM] | IC50 ([3]; repeat 2) [µM] | MIC M. tuberculosis ATCC 25177 (H37Ra) ([3]; repeat 1) [µM] | MIC M. tuberculosis ATCC 25177 (H37Ra) ([3]; repeat 2) [µM] | MIC P. aeruginosa ATCC 15442 (P. aeruginosa ATCC 15442) [µM] | IC50 (E. coli ATCC 8739 [4]) [µM]
polymyxin B [reference compound] | over 70% | – | – | – | – | – | – | – | – | – | – | – | –
SWWKKVFKPVEKLGQRVRDATIQGIGIAQQGANVLATVRGGPPQ-NH2 [Hill-Cec1] | – | > 32 | > 32 | >32 | >32 | 0.25 | 0.25 to 0.5 | > 32 | > 32 | >32 | >32 | 1 | 0.15
